Assays:
[1] = Hygroscopicity test (moisture content under controlled relative humidity); assay type: physicochemical; details: 27° C., listed as AC β-Mal (Control 3)
Experimental: Moisture contents of the samples at respective periods were measured based on the change of weight from the start of the test. The moisture contents of the samples at the start of the test were measured by Karl Fischer's method.

[2] = Specific surface area by nitrogen adsorption isotherms (BET); assay type: physicochemical; details: BET method, listed as anhydrous crystalline β-maltose of Control 3
Experimental: About 3 g of the anhydrous crystalline β-maltose, obtained in Example 1, was dried in the apparatus under a reduced pressure at about 40° C. for about 15 hours as a pretreatment, and then used for the measurement of specific surface area by the nitrogen adsorption isotherms. The result was analyzed by conventional BET (Brunnauer, Emmet, and Teller) method.

SMILES: OC[C@H]1O[C@H](O[C@H]2[C@H](O)[C@@H](O)[C@H](O)O[C@@H]2CO)[C@H](O)[C@@H](O)[C@@H]1O [Anhydrous crystalline β-maltose]
- Moisture content of samples ([1]; RH 47% (lithium nitrate), 0 hour (start, Karl Fischer)): 0.24 %, w/w
- Moisture content of samples ([1]; RH 47% (lithium nitrate), 2 hours): 0.32 %, w/w
- Moisture content of samples ([1]; RH 47% (lithium nitrate), 4 hours): 0.47 %, w/w
- Moisture content of samples ([1]; RH 47% (lithium nitrate), 24 hours): 0.54 %, w/w
- Moisture content of samples ([1]; RH 47% (lithium nitrate), 96 hours): 0.61 %, w/w
- Moisture content of samples ([1]; RH 47% (lithium nitrate), 192 hours): 0.47 %, w/w
- Moisture content of samples ([1]; RH 58% (sodium bromide), 0 hour (start, Karl Fischer)): 0.24 %, w/w
- Moisture content of samples ([1]; RH 58% (sodium bromide), 2 hours): 4.68 %, w/w
- Moisture content of samples ([1]; RH 58% (sodium bromide), 4 hours): 6.92 %, w/w
- Moisture content of samples ([1]; RH 58% (sodium bromide), 6 hours): 6.71 %, w/w
- Moisture content of samples ([1]; RH 58% (sodium bromide), 8 hours): 6.28 %, w/w
- Moisture content of samples ([1]; RH 58% (sodium bromide), 24 hours): 5.63 %, w/w
- Moisture content of samples ([1]; RH 58% (sodium bromide), 96 hours): 5.48 %, w/w
- Moisture content of samples ([1]; RH 58% (sodium bromide), 192 hours): 5.42 %, w/w
- Moisture content of samples ([1]; RH 75% (sodium chloride), 0 hour (start, Karl Fischer)): 0.24 %, w/w
- Moisture content of samples ([1]; RH 75% (sodium chloride), 2 hours): 6.86 %, w/w
- Moisture content of samples ([1]; RH 75% (sodium chloride), 4 hours): 6.76 %, w/w
- Moisture content of samples ([1]; RH 75% (sodium chloride), 6 hours): 6.47 %, w/w
- Moisture content of samples ([1]; RH 75% (sodium chloride), 8 hours): 6.34 %, w/w
- Moisture content of samples ([1]; RH 75% (sodium chloride), 24 hours): 6.16 %, w/w
- Moisture content of samples ([1]; RH 75% (sodium chloride), 96 hours): 6.01 %, w/w
- Moisture content of samples ([1]; RH 75% (sodium chloride), 192 hours): 5.93 %, w/w
- Moisture content of samples ([1]; RH 90% (barium chloride), 0 hour (start, Karl Fischer)): 0.24 %, w/w
- Moisture content of samples ([1]; RH 90% (barium chloride), 2 hours): 7.28 %, w/w
- Moisture content of samples ([1]; RH 90% (barium chloride), 4 hours): 7.66 %, w/w
- Moisture content of samples ([1]; RH 90% (barium chloride), 6 hours): 7.45 %, w/w
- Moisture content of samples ([1]; RH 90% (barium chloride), 8 hours): 7.45 %, w/w
- Moisture content of samples ([1]; RH 90% (barium chloride), 24 hours): 8.46 %, w/w
- Moisture content of samples ([1]; RH 90% (barium chloride), 96 hours): 10.20 %, w/w
- Moisture content of samples ([1]; RH 90% (barium chloride), 192 hours): 9.12 %, w/w
- Specific surface area [2]: 0.82 m^2/g
